Non-standard residues stand in square brackets, D forms with d. Residues, ends and D or L forms follow the SMILES beside them. ξ: configuration not given here. ξBip(2'-Et-4'-OMe) = CCc1cc(OC)ccc1-c1ccc(CC(N)C(=O)O)cc1; ξNva(5-(3,5-Me2-Ph)) = Cc1cc(C)cc(CCCC(N)C(=O)O)c1; Aib = CC(C)(N)C(=O)O
Key:
[1] = test system: C57BL/6J mice (mild hyperglycemic); experiment: In vivo glucose reduction, acute single dose 120-min time-course, i.p. route; parameters: species or system mouse; unit not given here; settings: male C57BL/6J mice
[2] = test system: C57BL/6J mice (mild hyperglycemic); experiment: In vivo glucose reduction, acute single dose 120-min time-course, oral route; parameters: species or system mouse; unit not given here; settings: male C57BL/6J mice, 2 μM/kg oral
Protocol: Acute single dose 120-min time-course experiments were carried out in male C57BL/6J or db/db mice, age 8-12 weeks, bred in-house. Animals were housed in groups of 6 animals per cage, for a week, in order to habituate them to vivarium conditions (25±4° C., 60-65% relative humidity, 12:12 h light:dark cycle, with lights on at 7.30 am). All the animal experiments were carried out according to the internationally valid guidelines following approval by the ‘Zydus Research Center animal ethical committee’.
Two days prior to the study, the animals were randomised and divided into 5 groups (n=6), based upon their fed glucose levels. On the day of experiment, food was withdrawn from all the cages, water was given ad-libitum and were kept for overnight fasting. Vehicle (normal saline)/test/standard compounds were administered intraperitoneally (i.p.) or orally, on a body weight basis. Soon after the 0 min. blood collection from each animal, the subsequent blood collections were done at 30, 60 and 120 or up to 240 min., via retro-orbital route, under light ether anesthesia (Chen, D., et al., Diabetes Obesity Metabolism, 2005, 7, 307. Kim, J. G. et al., Diabetes, 2003, 52, 751).
Blood samples were centrifuged and the separated serum was immediately subjected for the glucose estimation. Serum for insulin estimation was stored at −70° C. until used for the insulin estimation. The glucose estimation was carried out with DPEC-GOD/POD method (Ranbaxy Fine Chemicals Limited, Diagnostic division, India), using Spectramax-190, in 96-microwell plate reader (Molecular devices Corporation, Sunnyvale, Calif.). […] The AUC and BCAUC obtained from graphs were analyzed for one way ANOVA, followed by Dunnett's post test, using Graph Pad prism software. Furthermore, the insulin estimation was carried out using rat/mouse insulin ELISA kit (Linco research, Missouri USA). Changes in the blood glucose levels, at 0, 30, 60 and 120 min, with selected peptidomimetics are shown in Table 7 (via ip route of administration) and Table 8 (via oral route of administration) respectively.

CCc1cc(OC)ccc1-c1ccc(CC(CNC(CCCc2ccccc2)C(N)=O)NC[C@H](CC(=O)O)NC(=O)[C@H](CO)NC(=O)[C@@H](NC(=O)C(C)(Cc2ccccc2F)NC(=O)[C@@H](NC(=O)CNC(=O)C(CCC#N)NC(=O)C(C)(C)NC(=O)[C@@H](N)Cc2c[nH]cn2)[C@H](C)O)[C@H](C)O)cc1 (single isomer, unassigned) [Seq. ID. 202]
blood glucose levels ([1]; 50 nM/kg i.p., 0 min): 183 ± 5.1 | blood glucose levels ([1]; 50 nM/kg i.p., 30 min): 122 ± 3.1 | blood glucose levels ([1]; 50 nM/kg i.p., 60 min): 130 ± 2.3 | blood glucose levels ([1]; 50 nM/kg i.p., 120 min): 148 ± 2.2 | blood glucose levels ([2]; 0 min): 184 ± 2.5 | blood glucose levels ([2]; 30 min): 115 ± 3.6 | blood glucose levels ([2]; 60 min): 113 ± 4.2 | blood glucose levels ([2]; 120 min): 110 ± 2.4

CCc1cc(OC)ccc1-c1ccc(CC(NC(=O)[C@H](CC(=O)O)NC(=O)[C@H](CO)NC(=O)[C@@H](NC(=O)[C@H](Cc2ccccc2)NC(=O)[C@@H](NC(=O)CNC(=O)C(CCC#N)NC(=O)C(C)(C)NC(=O)[C@@H](N)Cc2c[nH]cn2)[C@@H](C)O)[C@@H](C)O)C(=O)NC(CCCc2cc(C)cc(C)c2)C(N)=O)cc1 (single isomer, unassigned) [Seq. ID. 30]
blood glucose levels ([1]; 30 nM/kg i.p., 0 min): 183 ± 3.6 | blood glucose levels ([1]; 30 nM/kg i.p., 30 min): 117 ± 3.3 | blood glucose levels ([1]; 30 nM/kg i.p., 60 min): 116 ± 3.2 | blood glucose levels ([1]; 30 nM/kg i.p., 120 min): 117 ± 1.4 | blood glucose levels ([2]; 0 min): 183 ± 2.4 | blood glucose levels ([2]; 30 min): 119 ± 3.1 | blood glucose levels ([2]; 60 min): 112 ± 4.8 | blood glucose levels ([2]; 120 min): 110 ± 2.5

CCc1cc(OC)ccc1-c1ccc(CC(NC(=O)[C@H](CC(=O)O)NC(=O)[C@H](CO)NC(=O)[C@@H](NC(=O)[C@H](Cc2ccccc2)NC(=O)[C@@H](NC(=O)CNC(=O)[C@H](CCC(N)=O)NC(=O)C(C)(C)NC(=O)[C@@H](N)Cc2c[nH]cn2)[C@@H](C)O)[C@@H](C)O)C(=O)NC(CCCc2cc(C)cc(C)c2)C(N)=O)cc1 (some centres unmarked) [Seq. ID. 18] (H-H[Aib]QGTFTSD[ξBip(2'-Et-4'-OMe)][ξNva(5-(3,5-Me2-Ph))]-NH2)
blood glucose levels ([1]; 30 nM/kg i.p., 0 min): 183 ± 3.6 | blood glucose levels ([1]; 30 nM/kg i.p., 30 min): 118 ± 3.3 | blood glucose levels ([1]; 30 nM/kg i.p., 60 min): 116 ± 3.2 | blood glucose levels ([1]; 30 nM/kg i.p., 120 min): 117 ± 1.9 | blood glucose levels ([2]; 0 min): 185 ± 2.3 | blood glucose levels ([2]; 30 min): 115 ± 3.8 | blood glucose levels ([2]; 60 min): 113 ± 4.9 | blood glucose levels ([2]; 120 min): 109 ± 2.2

CCc1cc(OC)ccc1-c1ccc(CC(NC(=O)[C@H](CC(=O)O)NC(=O)[C@H](CO)NC(=O)[C@@H](NC(=O)[C@H](Cc2ccccc2)NC(=O)[C@@H](NC(=O)CNC(=O)C(CCC#N)NC(=O)C(C)(C)NC(=O)[C@@H](N)Cc2c[nH]cn2)[C@@H](C)O)[C@@H](C)O)C(=O)NC(CCCc2ccccc2)C(N)=O)cc1 (single isomer, unassigned) [Seq. ID. 29]
blood glucose levels ([1]; 30 nM/kg i.p., 0 min): 180 ± 1.2 | blood glucose levels ([1]; 30 nM/kg i.p., 30 min): 116 ± 3.2 | blood glucose levels ([1]; 30 nM/kg i.p., 60 min): 116 ± 3.1 | blood glucose levels ([1]; 30 nM/kg i.p., 120 min): 118 ± 1.8 | blood glucose levels ([2]; 0 min): 184 ± 2.5 | blood glucose levels ([2]; 30 min): 118 ± 3.6 | blood glucose levels ([2]; 60 min): 113 ± 4.2 | blood glucose levels ([2]; 120 min): 110 ± 2.4
